Measured values taken from article PMC9605374 (Marine Drugs, 2022).

What was measured:
Format in all cases: cell-based, human
22Rv1 cells [1] = assay: Cell cycle progression and DNA fragmentation analysis (PI, flow cytometry); details: 22Rv1, 48 h
Method: (§1) Figure 4 Investigation of the proapoptotic activity of NB. Flow cytometry analysis of 22Rv1 cells after 48 h of treatment. (A) Cell cycle and DNA fragmentation analysis. Treated cells were stained with PI and analyzed using a flow cytometry technique. Sub-G1 population was assumed to be apoptotic cells containing fragmentated DNA. (B) Analysis of phosphatidylserine externalization. Treated cells were double-stained with annexin-V-FITC and PI and analyzed using the flow cytometry technique. Cells of the low left quadrant (annexin-V-FITC^−/PI^−) were considered as alive cells. The Cell Quest Pro v.5.2.1 software (BD Bioscience, San Jose, CA, USA) was used to analyze and quantify the FACS data. Cells treated for 48 h with 10 µM of anisomycin were used as a positive control. Number of replicates n = 3. Statistical significance: * p < 0.05 (ANOVA). […]
DNA fragmentation and cell cycle progression of treated and untreated cells (negative control) were analyzed by flow cytometry as previously described. […]

caspase-3 in 22Rv1 cells = assay: Western blotting, caspase-3 cleavage; details: 22Rv1, 48 h after drug exposure
Method: We examined several time points, specifically, 15 min, 2 h, and 48 h (Figure 6).
Figure 6 Validation of kinome analysis data. 22Rv1 cells were treated with 1 µM or 10 µM of NB for the indicated time. The protein expression was analyzed by Western blotting using total protein load equal to 30 µg/slot. α-Tubulin was used as a loading control.
The Western blot assay was executed as previously described: 1 × 10^6 cells were seeded in Petri dishes (ø 6 cm, 5 mL/dish) and incubated overnight. On the next day, the cells were treated with the compounds in fresh culture media (5 mL/dish) for the indicated time. Next, cells were harvested with a cell scraper and lysed in lysis buffer including protease and phosphatase inhibitors cocktail (Roche, Mannheim, Germany). Cell debris were removed from the protein lysates via centrifugation. Afterwards, the cell-free protein mixtures were separated in gradient ready-made Mini-PROTEAN® TGX Stain-Free^TM gels (Bio-Rad, Hercules, CA, USA) using SDS-PAGE (sodium dodecylsulfate polyacrylamide gel electrophoresis). Then, the proteins were blotted onto ø 0.2 µm pore PVDF membrane. The membrane was blocked and consequently treated with primary and secondary antibodies for protein detection. The signals were detected using the ECL chemiluminescence system (Thermo Scientific, Rockford, IL, USA).

PC3 = assay: Colony formation assay; details: PC3, 48 h treatment then 14 days, nanomolar concentrations
Method: (§2) Next, we investigated the effect of NB on the ability of cancer cells to form colonies from single cells using a colony formation assay and a preplating mode. […] However, this speculation awaits further confirmation in vivo.
(§3) Figure 3 Colony formation assay. The human cancer cells were seeded in 6-well plates and treated for 48 h with the indicated concentrations of NB. Then, the media was exchanged, and the plates were incubated for 14 days, which was followed by fixation, staining, and counting. Number of replicates n = 3. Statistical significance: * p < 0.05 (ANOVA).

22Rv1 = assay: Colony formation assay; details: 22Rv1, 48 h treatment then 14 days, nanomolar concentrations
Method: as §2, §3

VCaP = assay: Colony formation assay; details: 48 h treatment then 14 days, nanomolar concentrations
Method: as §2, §3

22Rv1 cells [2] = assay: Annexin-V-FITC/PI double staining, flow cytometry
Method: as §1
Externalization of phosphatidylserine is a distinct marker of apoptotic cell death that can be detected by flow cytometry using annexin-V-FITC and propidium iodide (PI) double staining. […] Cells were harvested utilizing trypsin, stained with annexin-V-FITC and propidium iodide, and analyzed using FACS Calibur (BD Bioscience, San Jose, CA, USA).

**Q.** Which results are given for `COc1ccc(C2SSC34CC5(O)C(Cl)C=CC(O)C5ON3C(=O)C2N(C)C4=O)c(O)c1OC` (centres unmarked) [NB, N-methylpretrichodermamide B]?
**A.** DNA fragmentation (sub-G1 population) (22Rv1 cells [1]): caused DNA fragmentation; cell cycle arrest (22Rv1 cells [1]): G1-phase arrest; caspase-3 cleavage (caspase-3 in 22Rv1 cells): caspase-3 cleavage that was observed; colony-formation ability (PC3): inhibit the colony-formation ability; colony-formation ability (22Rv1): inhibit the colony-formation ability; colony-formation ability (VCaP): inhibit the colony-formation ability; phosphatidylserine externalization (22Rv1 cells [2]; 22Rv1, 48 h): caused DNA fragmentation and phosphatidylserine externalization; effect of pretreatment with pan-caspase inhibitor zVAD on drug-induced cell death (22Rv1 cells [2]; 22Rv1, zVAD 100 µM 1 h pretreatment, 48 h): could not significantly inhibit
